Series [1] deals with Mus musculus. As to the kind of experiment: Acute toxicity in mouse at 125 mg/kg, ip after 24 hrs. The class given is organism-based. The note with it: in vivo.
For series [2], the system named is Mus musculus. The experiment in a line: Acute toxicity in mouse at 300 mg/kg, po after 24 hrs. The class given is organism-based. The note with it: in vivo.
Series [3] has as its target T1, Amine oxidase [flavin-containing] A (Bos taurus, UniProt P21398).
T1 sequence (P21398 whole entry): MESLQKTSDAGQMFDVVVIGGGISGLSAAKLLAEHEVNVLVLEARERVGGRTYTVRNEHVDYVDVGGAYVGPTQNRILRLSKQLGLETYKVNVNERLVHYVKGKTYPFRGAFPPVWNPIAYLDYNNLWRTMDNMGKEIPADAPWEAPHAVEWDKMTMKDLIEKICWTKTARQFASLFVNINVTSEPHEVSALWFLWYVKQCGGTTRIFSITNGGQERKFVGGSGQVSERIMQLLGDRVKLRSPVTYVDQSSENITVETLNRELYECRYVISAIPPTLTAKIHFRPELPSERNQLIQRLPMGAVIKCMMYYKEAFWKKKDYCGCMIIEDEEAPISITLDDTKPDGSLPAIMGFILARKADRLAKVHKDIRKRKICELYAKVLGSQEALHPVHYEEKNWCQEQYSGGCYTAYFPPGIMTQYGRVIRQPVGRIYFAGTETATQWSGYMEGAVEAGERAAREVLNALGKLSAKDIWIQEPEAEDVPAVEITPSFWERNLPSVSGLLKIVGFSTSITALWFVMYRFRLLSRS
As to the kind of experiment: Inhibition of bovine brain mitochondria MAO-A using serotonin substrate after 60 mins by fluorimetric method.

Series [4] concerns the target T2, Amine oxidase [flavin-containing] B (Bos taurus, UniProt P56560).
T2 sequence (P56560 whole entry): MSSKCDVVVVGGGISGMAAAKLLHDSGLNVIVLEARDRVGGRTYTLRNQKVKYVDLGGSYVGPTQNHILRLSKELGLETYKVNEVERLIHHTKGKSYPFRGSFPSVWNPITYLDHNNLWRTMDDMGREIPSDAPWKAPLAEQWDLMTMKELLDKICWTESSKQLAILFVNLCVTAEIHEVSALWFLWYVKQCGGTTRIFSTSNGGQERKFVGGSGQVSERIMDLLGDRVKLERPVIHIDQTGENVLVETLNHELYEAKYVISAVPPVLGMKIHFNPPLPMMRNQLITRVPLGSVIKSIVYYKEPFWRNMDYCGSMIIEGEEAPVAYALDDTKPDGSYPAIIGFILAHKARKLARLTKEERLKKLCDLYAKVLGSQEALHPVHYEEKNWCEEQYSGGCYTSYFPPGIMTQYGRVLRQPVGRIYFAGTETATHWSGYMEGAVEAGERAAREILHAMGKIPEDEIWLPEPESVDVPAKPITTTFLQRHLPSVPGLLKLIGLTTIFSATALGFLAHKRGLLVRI
As to the kind of experiment: Inhibition of bovine brain mitochondria MAO-B using benzylamine substrate after 60 mins by fluorimetric method.

Take `COC(=O)[C@H](C)NC(=O)c1ccccc1N`: the Activity result with Mus musculus [1] and in the series on Mus musculus [2] was “Non-toxic” throughout. Further, the half-maximal inhibitory concentration (IC50) in series [3] came out at 0.063 µM; in series [4], 410 µM.
`COC(=O)CNC(=O)c1ccccc1N`: the Activity entry in the series with Mus musculus [1] and with Mus musculus [2] was “Non-toxic” in each case. In addition, the IC50 was 0.052 µM in series [3] and 850 µM in series [4].

For the origin of these results see ChEMBL document CHEMBL3585336, “Synthesis and evaluation of quinazoline amino acid derivatives as mono amine oxidase (MAO) inhibitors” (Bioorg Med Chem, 2015).
